Test results reported in US9943502B2, “Lung cancer adjuvant therapy” (Texas Tech University System, priority 2014, dated 2018).
Entries after “also recorded” stand apart in the source; their conditions may differ.

Assays:
A549CRM1− cells = assay: Cell viability assay (MTT); format: cell-based; settings: FIG. 4A, P<0.05
Protocol: Cell viability assay. Cell viability was evaluated using the MTT (3-(4,5-dimethylthiazol-2-yl)-2,5-diphenyltetrazolium bromide) assay as previously described^29, 33. […] Studies were performed independently in triplicate.

A549 cells [1] = assay: Analysis of cell cycle by flow cytometry; format: cell-based; settings: 25 μM cisplatin and/or 0.5 nM LMB, 24 and 48 h
Protocol: Analysis of cell cycle by flow cytometry. The cells were harvested after 24 and 48 h of treatment. […] Cell cycle analysis was conducted by a Guava EasyCyte™ Flow Cytometer (Millipore) as previously described^32, 33. Each sample was run in triplicate and each experiment was repeated three times.

A549 cells [2] = assay: Array-based SYBR Green RT-PCR (RT2 Profiler PCR array, Human Cancer Drug Targets, 84 genes); format: cell-based
Protocol: Array-based SYBR® Green RT-PCR. Constitutive gene expression profiling was performed using the RT^2 Profiler™ PCR array to analyze the expression of 84 genes involving in cancer signal pathways (Human Cancer Drug Targets, Qiagen) based on manufacturer's instructions and our previous publications^33, 34. Studies were performed in duplicate for each group.

A549 cells [3] = assay: Western blot analyses of PARP1, p21 and survivin; format: cell-based; settings: 24 and 48 h, P<0.05
Protocol: Western blot analyses. […] Immunoblotting was performed using different primary antibodies and α-tubulin as the internal control.

[4] = test system: lung cancer A549 cells xenografts; assay: Treatment of mouse xenografts: tumor growth; format: in vivo, female athymic mice; settings: intra-tumoral injection three times per week; Cis 2.5 mg/Kg, LMB 2 μg/Kg
Protocol: Xenograft animal model. The handling of animals was in accordance with the Institutional Animal Care and Use Committee. Female athymic mice, 7-8 weeks of age and 23.5 g in weight (Charles River Laboratory) received subcutaneous injection of 1×10^6 A549 or A549CRM1− cells in the lower flank (n=8/group). Tumor volume was measured by a digital caliper (Thermo Fisher Scientific). The major longitudinal diameter (length) and the major transverse diameter (width) were determined. Tumor volume was calculated based on caliper measurements by the following formula: Tumor volume=½ (length×width^2).
(§1) Treatment of mouse xenografts. Thirty-two female athymic mice, 7-8 weeks of age and 23.5 g in weight (strain code 088, Charles River Laboratory) were each injected subcutaneously with 1×10^6 lung cancer A549 cells in the lower flank. […] All injections were carried out for three times per week. Mice body weights and tumor sizes were measured three times per week.

[5] = Treatment of mouse xenografts: body weight and side effects; format: in vivo, female athymic mice; settings: two weeks after treatment; without deteriorating behavior and health condition
Protocol: as §1

[6] = in vivo; cited from earlier work
lung cancer cells = settings: cited from earlier work
[7] = test system: normal bronchial epithelial cells; settings: cited from earlier work
BEAS-2B cells = assay: Soft agar colony assay of NNK-transformed BEAS-2B cells; format: cell-based, human; settings: NNK 15 μM for 24 h, then 9 passages (BEAS-2BNNK), P<0.05
Protocol: (§2) Human normal lung epithelial cells BEAS-2B with NNK exposure/transformation or CRM1 stable overexpression. Human normal bronchial epithelial cell line BEAS-2B was obtained from American Type Culture Collection (ATCC). (1) For short-term NNK exposure, BEAS-2B cells were treated with 0, 10, 75, or 150 μM NNK for 24 and 72 h in triplicate as described in our previous study^29; (2) BEAS-2BNNK, an in vitro transformed cell model derived from BEAS-2B, was generated by exposure to NNK (15 μM) for 24 h and then continuously sub-cultured for 9 passages. […] Similarly, BEAS-2B was transfected with vector control for comparison. BEAS-2B, BEAS-2BNNK, and BEAS-2BCRM1+ cells were cultured in LHC-9 medium (Invitrogen) containing 100 U penicillin/mL and 100 μg/mL streptomycin.
Soft agar colony assay (Anchorage independent growth assay). Cells were suspended at 5×10^4 cells/mL for BEAS-2B, BEAS-2BNNK, and BEAS-2BCRM1+ or 2×10^4 cells/mL for A549 and A549CRM1− cells in growth medium containing 0.35% agar. Cell suspension was added to a 6-well tissue culture plate pre-coated with 0.7% solid agar. After 9-11 days of incubation (9 days for A549 and 11 days for BEAS-2B), the number of colonies/microscope area (6 randomly selected areas/well) was counted and their sizes were analyzed using cell staining (0.005% Crystal Violet) by microscope. This study was done in triplicate.

CRM1 = CRM1 expression (qRT-PCR, Western blot) in NNK-transformed BEAS-2B cells; format: cell-based, human; settings: BEAS-2BNNK, P<0.05
Protocol: as §2
Isolation of total RNA and quantitative real-time PCR (qRT-PCR). Total RNA was isolated using an RiNeasy® plus mini kit (Qiagen) following the manufacturer protocol. One-Step RT-PCR kit with SYBR green was used for amplification of total RNA (75 ng) by following the manufacturer's protocol (BioRad) and our recent publication^32. […] Threshold cycle number (Ct value) was analyzed using CFX Manager Software (Bio-Rad). The Ct value of CRM1 was normalized to the Ct value of GAPDH from same sample and the fold change in the expression was calculated by using the ΔΔCt method. […]

phospho-p53 (Thr55) = phospho-p53 (Thr55) protein expression in BEAS-2B cells after NNK exposure; format: cell-based, human
Protocol: as §2

lung tissues = assay: Mouse model of NNK-induced lung tumors, Western blot of lung tumors; format: in vivo, FVB/N mice; settings: NNK-treated mice, P<0.01
Protocol: Mouse model and NNK-induced lung tumors. Male FVB/N mice are an intermediately susceptible strain with regard to spontaneous lung tumor formation and have been used for studies of NNK-induced lung tumorigenesis^31. Mice were each given two intra-peritoneal injections of 3 mg NNK per week (NNK-treated group, n=8) or 0.9% saline (vehicle control group, n=8). From each group, mice were sacrificed at 32-weeks after the last NNK- or saline-treatment. Lung tissues were fresh frozen or formalin-fixed and paraffin-embedded.

[8] = cisplatin 10 and 25 μM with or without 0.5 nM LMB

With `N.N.[Cl][Pt][Cl]` [Cis, cisplatin] the “sensitivity of A549CRM1− cells compared with A549 cells” value (A549CRM1− cells) was “even more sensitive”, the “cell cycle distribution compared with the control” value (A549 cells [1]) was “significantly higher proportion of cells in S and G2/M phases” and the “expression level of AURKA, AURKB, CDK1, HIF1A, MDM4, PLK1, PLK4, and TNKS compared to the control” value (A549 cells [2]; 25 μM cisplatin, P<0.05) was “significantly decreased expression level”. For the same compound, the “expression of CTSB, GRB2, MDM2, and NF-κB compared to the control” value (A549 cells [2]; 25 μM cisplatin, P<0.05) was “increased expression”, the NF-κB expression (A549 cells [2]; A549 cells) was “increased expression of NF-κB” and the “survivin expression level compared to controls” value (A549 cells [3]) was “significantly decreased”. For the same compound, the “PARP1 protein expression compared to vehicle-treated cells” value (A549 cells [3]; [8]) was “significantly increased in a dose-response manner”, the “p21 protein expression compared to vehicle-treated cells” value (A549 cells [3]; [8]) was “significantly increased in a dose-response manner” and the “tumor growth compared to the vehicle-treated control” value [4] was “significant decrease in tumor growth; also recorded: significantly delayed tumor growth”. For the same compound, the “body weight for mice” value [5] was “started to decrease gradually”.

For `CCC(=C/[C@H](C)C/C=C/C(C)=C/[C@@H](C)C(=O)[C@@H](C)[C@H](O)[C@@H](C)C/C(C)=C/C(=O)O)/C=C/[C@@H]1OC(=O)C=C[C@@H]1C` [LMB, leptomycin B], the “cell cycle distribution compared with the control” value (A549 cells [1]) was “did not alter the cell cycle distribution”, the “gene expression profile compared to the control group” value (A549 cells [2]; 0.5 nM LMB) was “No significant difference” and the “tumor growth compared to the vehicle-treated control” value [4] was “growth curves followed a similar trend”. For the same compound, the “side effects in the phase I clinical trial” value [6] was “malaise and anorexia”, the “effect on lung cancer cells” value (lung cancer cells) was “inhibit lung cancer cell growth and induce cytotoxicity” and the “effects on normal bronchial epithelial cells” value [7] was “minimal effects”.

In the case of `CN(CCCC(=O)c1cccnc1)N=O` [NNK, 4-(methylnitrosamino)-1-(3-pyridyl)-1-butanone], the “soft agar colony number and colony size compared with vehicle-treated BEAS-2B cells” value (BEAS-2B cells) is reported as “significant increase in both colony number and colony size”, the “CRM1 expression at the mRNA level compared to vehicle-treated BEAS-2B cells” value (CRM1) is reported as 2.6 folds and the “CRM1 expression at the protein level compared to vehicle-treated BEAS-2B cells” value (CRM1) is reported as about 1.5 folds. The “phosphorylated-p53 (p-p53) at Thr55 in NNK-transformed cells” value (phospho-p53 (Thr55); BEAS-2BNNK cells, FIG. 2B) was “overexpressed”, the “protein expression levels of p-p53 at Thr55 compared to vehicle-treated BEAS-2B cells” value (phospho-p53 (Thr55); NNK 10, 75 and 150 μM for 24 and 72 h, P<0.05) was “dose-dependent decrease” and the “CRM1 expression in lung tumor tissues compared with normal tissues” value (lung tissues; 32 weeks after last treatment) was “increased CRM1 expression”. The “p-p53 at Thr55 in lung tumors compared with normal lung tissues” value (lung tissues) was “significant increase”.
